Results reported in PMC11758220, “Identification of a Privileged Scaffold for Inhibition of Sterol Transport Proteins through the Synthesis and Ring Distortion of Diverse, Pseudo-Natural Products” (ACS Central Science, 2025).

Legend:
Aster-A = target: T1, Aster-A (Homo sapiens, UniProt Q96CP6); experiment: Fluorescence polarisation (FP) competition with NBD-cholesterol, Aster-A; assay type: binding; settings: for IC50: mean of three experiments run in technical duplicates; for inhibition at 10 µM / Aster-A (FP) inhibition: single dose, Dose = 10 µM
T1 construct: Aster-A(359-547); GST (PreScission-cleavable) (N, cleaved yes); made in house; host or cells: E. coli OverExpress C41
T1 sequence (Q96CP6 359-547): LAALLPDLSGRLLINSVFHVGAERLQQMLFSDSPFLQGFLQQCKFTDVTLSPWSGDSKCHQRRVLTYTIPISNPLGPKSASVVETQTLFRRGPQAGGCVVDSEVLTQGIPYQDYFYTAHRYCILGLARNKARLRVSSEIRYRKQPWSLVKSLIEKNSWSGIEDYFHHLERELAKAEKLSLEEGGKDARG
Excerpt: (§1) Protein expression constructs
(§2) Human ASTER domains of Aster-A(359-547), -B(364-552) and -C(318-504) were subcloned into a pGEX-6p-2rbs vector, thus introducing the cloning artifact ‘GPLGS’.3 The pGEX-6P-1-GST-OSBP(377- […]
(§3) a gift from James H. Hurley (University of California).4 The pHIS_2His6_Thrombin_STARD4(2-205;C75S) plasmid was a gift from Young Jun Im (Chonnam National University).5 STARD5A was a gift from Nicola Burgess-Brown (Addgene plasmid #42392; http://n2t.net/addgene:42392; […]
(§4) Protein expression and purification […]
(§5) vectors including an N-terminal PreScission-cleavable glutathione S-transferase (GST)-tag were expressed in Escherichia coli (E. coli) OverExpress C41 in Terrific Broth (TB) medium for 16 h at 18 °C after the induction with 0.1 mM isopropyl β-D-1-thiogalactopyranoside (IPTG). Cells were harvested at 3500 × g for 15 minutes and lysed by sonication in buffer containing 50 mM HEPES pH 7.5, 300 mM NaCl, 10 %v/v glycerol, 5 mM dithiothreitol (DTT), 0.1 %v/v Triton X-100 and protease inhibitor mix HP plus (Serva). The lysate was purified by affinity chromatography on a GSTrap FF column (Cytiva) using an ÄKTA Start (Cytiva) in buffer containing 50 mM HEPES pH 7.5, 300 mM NaCl, 10 %v/v glycerol, 5 mM DTT and 0.01 %v/v Triton X-100. The GST-tag was cleaved overnight on the column at 4 °C. The Aster sterol binding domains were further purified by size-exclusion chromatography (SEC) on a HiLoad 16/600 Superdex 75 pg (Cytiva) in buffer containing 20 mM HEPES pH 7.5, 300 mM NaCl, 10 %v/v […]
(§6) STARD5(6-213) harboring an N-terminal His6-Tag were expressed in E. coli BL21(DE3) in Luria-Bertani Broth (LB) medium for approximately 16 h at 18 °C after induction with 0.15 mM IPTG. Cells were harvested at 3500 × g for 15 minutes and lysed by sonication in buffer containing 50 mM HEPES pH 7.5, 150 mM NaCl, 5 %v/v glycerol, 5 mM DTT, 0.1 %v/v Triton X -100 and ethylenediaminetetraacetic acid (EDTA)-free protease inhibitor cocktail (Sigma-Aldrich). The cleared lysate was purified by affinity chromatography on a Ni-NTA Superflow Cartridge (Qiagen) using an ÄKTA Start (Cytiva) in buffer containing 50 mM HEPES pH 7.5, 150 mM NaCl, 5 %v/v glycerol, 5 mM DTT. START domains were eluted by using elution buffer containing 50 mM HEPES pH 7.5, 150 mM NaCl, 5 %v/v glycerol, 5 mM DTT and 500 mM imidazole. Proteins were further purified by SEC on a HiLoad 16/600 Superdex 75 pg (Cytiva) in buffer containing 20 mM HEPES pH 7.5, 150 mM NaCl, 5 %v/v glycerol and 2 mM DTT.
(§7) The ORP domain of human OSBP(377-807) in the pGEX-6p-1 vector with an N-terminal PreScission-cleavable GST-tag was expressed in E. coli OverExpress C41 in LB medium for 16 h at 18 °C after induction with 0.1 mM IPTG. Cells were harvested at 3500 × g for 15 minutes and lysed by sonication in buffer containing 20 mM HEPES pH 7.5, 300 mM NaCl, 10 %v/v glycerol, 5 mM DTT, 0.1 %v/v Triton X-100 and EDTA-free protease inhibitor cocktail (Sigma-Aldrich). The cleared lysate was purified by affinity chromatography on a GSTrap HF column (Cytiva) using an ÄKTA Start (Cytiva) in buffer containing 20 mM HEPES pH 7.5, 300 mM NaCl, 10 %v/v glycerol, 5 mM DTT. OSBP(377 -807) was eluted by using elution buffer containing 20 mM HEPES pH 7.5, 300 mM NaCl, 10 %v/v glycerol, 5 mM DTT and 10 mM reduced glutathione. Proteins were further purified by SEC on a HiLoad 16/600 Superdex 75 pg (Cytiva) using an ÄKTA Explorer (Cytiva) in buffer containing 20 mM HEPES pH 7.5, 150 mM NaCl, 10 %v/v glycerol and 2 mM DTT.
(§8) The ORP domains of human ORP1(534-950) in pET24b(+) and ORP2(49-480) in the pET24b(+) vector including an N-terminal His6-Tag were expressed in E. coli BL21(DE3) in TB medium for approximately 16 h at 18 °C after induction with 0.1 mM IPTG. Cells were collected at 3500 × g for 15 minutes and lysed by sonification in buffer containing 10 mM Tris-HCl pH 8, 300 mM NaCl, 5 % glycerol, 2 mM DTT, 0.1 % Triton X-100 and EDTA-free protease inhibitor cocktail (Sigma-Aldrich). The cleared […]

ORP1 = target: T2, ORP1 (Homo sapiens, UniProt Q9BXW6); experiment: Fluorescence polarisation (FP) competition with NBD-cholesterol, ORP1; assay type: binding; settings: for IC50: mean of three experiments run in technical duplicates; for inhibition at 10 µM / ORP1 (FP) inhibition: single dose, Dose = 10 µM
T2 construct: ORP1(534-950); host or cells: E. coli BL21(DE3)
T2 sequence (Q9BXW6 534-950): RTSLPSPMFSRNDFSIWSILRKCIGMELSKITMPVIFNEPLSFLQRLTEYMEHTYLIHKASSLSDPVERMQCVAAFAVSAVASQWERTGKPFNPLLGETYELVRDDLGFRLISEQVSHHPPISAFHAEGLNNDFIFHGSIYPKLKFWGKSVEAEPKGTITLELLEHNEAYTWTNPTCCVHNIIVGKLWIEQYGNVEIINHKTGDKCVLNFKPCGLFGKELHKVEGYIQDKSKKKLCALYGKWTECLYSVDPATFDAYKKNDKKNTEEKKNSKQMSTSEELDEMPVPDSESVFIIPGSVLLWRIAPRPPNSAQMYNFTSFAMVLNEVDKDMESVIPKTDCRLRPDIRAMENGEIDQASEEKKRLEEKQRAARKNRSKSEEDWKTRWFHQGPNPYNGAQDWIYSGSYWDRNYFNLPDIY
Excerpt: as §1, §2, §3, §4, §5, §6, §7, §8

## C[C@]12CC[C@@H]3C[C@H]1CC[C@@]21C(=Nc2ccc(Br)cc21)O3 (racemic) [Compound 15b]
Aster-A
  IC50: 4.3 µM
  inhibition at 10 µM: 67%
ORP1
  IC50: 20.9 µM
  inhibition at 10 µM: 60%

## CC12CCC3CC1CCC21C(=Nc2ccc(N4CCOCC4)cc21)O3 (racemic) [Compound 19a]
Aster-A
  IC50: 0.77 µM
  inhibition at 10 µM: 60%
ORP1
  IC50: > 80 µM
  inhibition at 10 µM: 0%

## CC12CCC3CC1CCC21C(=Nc2ccc(Br)cc21)O3 (single isomer, unassigned; (+)) [(+)-15b]
Aster-A
  IC50: 35 µM
  inhibition at 10 µM: 2%
ORP1
  IC50: > 80 µM
  inhibition at 10 µM: 0%

## CC12CCC3CC1CCC21C(=Nc2ccc(N4CCOCC4)cc21)O3 (single isomer, unassigned; (+)) [(+)-19a]
Aster-A
  IC50: 15.4 µM
  Aster-A (FP) inhibition: 12%
ORP1
  IC50: > 80 µM
  ORP1 (FP) inhibition: -3.3%

## CC12CCC3CC1CCC21C(=Nc2ccc(N4CCOCC4)cc21)O3 (single isomer, unassigned; (-)) [(−)-19a]
Aster-A
  IC50: 0.46 µM
  Aster-A (FP) inhibition: 79%
ORP1
  IC50: > 50 µM
  ORP1 (FP) inhibition: 15.0%

## C[C@@]12CC[C@H]3C[C@@H]1CC[C@]21C(=Nc2ccc(Br)cc21)O3 [(−)-15b]
Aster-A
  IC50: 4.14 µM
  inhibition at 10 µM: 80%
ORP1
  IC50: 15.3 µM
  inhibition at 10 µM: 68.3%

## CC(C)Oc1ccc(C(=O)Nc2nc3c(s2)CN(C(=O)OC(C)(C)C)CC3)cc1 [Autogramin-2, reference compound]
Aster-A
  IC50: 1.09 µM
  Aster-A (FP) inhibition: 70%
ORP1
  IC50: 4.26 µM
  ORP1 (FP) inhibition: 57.5%

## Cc1c2c(nc3ccccc13)[C@@]1(C)CC[C@@H](O)C[C@H]1CC2 [Compound 2a]
Aster-A
  inhibition at 10 µM: 1%
ORP1
  inhibition at 10 µM: 53.3%

## C[C@]12CC[C@@H](O)C[C@H]1CCc1c2nc2ccccc2c1-c1ccccc1 [Compound 2b]
Aster-A
  Aster-A (FP) inhibition: -2%
ORP1
  ORP1 (FP) inhibition: 11.7%

## Cc1c2c(nc3cc(Br)ccc13)[C@@]1(C)CC[C@@H](O)C[C@H]1CC2 [Compound 2c]
Aster-A
  Aster-A (FP) inhibition: -1%
ORP1
  ORP1 (FP) inhibition: 81.7%

## C[C@]12CC[C@@H](O)C[C@H]1CCc1c2nc2ccccc2c1-c1ccc(F)cc1 [Compound 2d]
Aster-A
  inhibition at 10 µM: -6%
ORP1
  inhibition at 10 µM: 5%

## C[C@]12CC[C@@H](O)C[C@H]1CCc1c2nc2ccc(Cl)cc2c1-c1ccccc1 [Compound 2e]
Aster-A
  Aster-A (FP) inhibition: -4%
ORP1
  ORP1 (FP) inhibition: 2.5%

## C[C@]12CC[C@@H](O)C[C@H]1CCc1c2[nH]c2ncccc12 [Compound 3]
Aster-A
  inhibition at 10 µM: -2%
ORP1
  inhibition at 10 µM: -5.8%

## C[C@]12CC[C@@H](O)C[C@H]1CCC[C@]21Nc2ccccc2-n2cccc21 [Compound 4]
Aster-A
  Aster-A (FP) inhibition: -8%
  inhibition at 10 µM: -9%
ORP1
  ORP1 (FP) inhibition: 30.0%
  inhibition at 10 µM: 5.8%

## C[C@]12CC[C@@H](O)C[C@H]1CCC[C@]21NC(=O)c2ccccc2N1 [Compound 5a]
Aster-A
  Aster-A (FP) inhibition: -2%
  inhibition at 10 µM: 0%
ORP1
  ORP1 (FP) inhibition: 0.0%
  inhibition at 10 µM: -2.5%

## C[C@]12CC[C@@H](O)C[C@H]1CCC[C@]21NC(=O)c2ccc(F)cc2N1 [Compound 5b]
Aster-A
  Aster-A (FP) inhibition: -2%
  inhibition at 10 µM: -1%
ORP1
  ORP1 (FP) inhibition: -7.5%

## COc1ccc2c(c1)C(=O)N[C@]1(CCC[C@@H]3C[C@H](O)CC[C@@]31C)N2 [Compound 5c]
Aster-A
  Aster-A (FP) inhibition: -1%
ORP1
  ORP1 (FP) inhibition: -5.0%
  inhibition at 10 µM: 3.3%

## C[C@]12CC[C@@H](O)C[C@H]1CCc1nc3ccccc3nc12 [Compound 7a]
Aster-A
  inhibition at 10 µM: 14%
ORP1
  inhibition at 10 µM: 16.7%

## Cc1cc2nc3c(nc2cc1C)[C@@]1(C)CC[C@@H](O)C[C@H]1CC3 [Compound 7b]
Aster-A
  inhibition at 10 µM: -1%
ORP1
  inhibition at 10 µM: 0%

## C[C@]12CC[C@@H](O)C[C@H]1CCc1nc3cc(F)c(F)cc3nc12 [Compound 7c]
Aster-A
  Aster-A (FP) inhibition: -1%
ORP1
  ORP1 (FP) inhibition: -5.0%

## C[C@]12CC[C@@H](O)C[C@H]1CCc1nc3cc(Cl)c(Cl)cc3nc12 [Compound 7d]
Aster-A
  Aster-A (FP) inhibition: 1%
ORP1
  ORP1 (FP) inhibition: 1.7%

## C[C@]12CC[C@@H](O)C[C@H]1CCc1nc3cc(Br)c(Br)cc3nc12 [Compound 7e]
Aster-A
  Aster-A (FP) inhibition: -1%
ORP1
  ORP1 (FP) inhibition: 5.0%

## C[C@]12CC[C@@H](O)C[C@H]1CCc1sc(N)nc12 [Compound 8a]
Aster-A
  inhibition at 10 µM: -1%
ORP1
  inhibition at 10 µM: -9.2%

## Cc1nc2c(s1)CC[C@@H]1C[C@H](O)CC[C@]21C [Compound 8b]
Aster-A
  Aster-A (FP) inhibition: -1%
ORP1
  ORP1 (FP) inhibition: -2.5%

## C[C@]12CC[C@@H](O)C[C@H]1CCc1sc(-c3cccnc3)nc12 [Compound 8c]
Aster-A
  Aster-A (FP) inhibition: 0%
ORP1
  ORP1 (FP) inhibition: 5.8%

## COc1ccc(-c2nc3c(s2)CC[C@@H]2C[C@H](O)CC[C@]32C)cc1 [Compound 8d]
Aster-A
  inhibition at 10 µM: -1%
ORP1
  inhibition at 10 µM: 66.7%

## C[C@]12CC[C@@H](O)C[C@H]1CCc1sc(-c3ccc(F)cc3)nc12 [Compound 8e]
Aster-A
  Aster-A (FP) inhibition: -3%
ORP1
  ORP1 (FP) inhibition: 31.7%

## C[C@]12CC[C@@H](O)C[C@H]1CCc1[nH]c(-c3ccccc3)nc12 [Compound 9]
Aster-A
  inhibition at 10 µM: -2%
ORP1
  inhibition at 10 µM: -0.8%

## C[C@]12CC[C@@H](O)C[C@H]1CCc1c2[nH]c2ccccc12 [Compound 10a]
Aster-A
  Aster-A (FP) inhibition: 1%
ORP1
  ORP1 (FP) inhibition: 28.3%

## C[C@]12CC[C@@H](O)C[C@H]1CCc1c2[nH]c2ccc(Br)cc12 [Compound 10b]
Aster-A
  Aster-A (FP) inhibition: -9%
ORP1
  ORP1 (FP) inhibition: 21.7%

## C[C@]12CC[C@@H](O)C[C@H]1CCc1c2[nH]c2ccc(Cl)cc12 [Compound 10c]
Aster-A
  Aster-A (FP) inhibition: 1%
ORP1
  ORP1 (FP) inhibition: 24.2%
